According to patent US20250230193A1, “CYCLIC COMPOUND HAVING SELECTIVE KRAS INHIBITORY EFFECT ON HRAS AND NRAS” (CHUGAI SEIYAKU KABUSHIKI KAISHA, priority 2022, published 2025):
*1 amine or outer side, *2 acyl side, *3 side chain or, on linkers, in order; H or OH if unused. Where a SMILES comes first, the peptide text is derived from it. Bridges are numbered along the chain shown (N, C = ends). [ ]: non-standard residue; d: D form. The star is where a group is joined. hPhe(3-Cl-4-CF3) = N[C@@H](CCc1ccc(C(F)(F)F)c(Cl)c1)C(=O)O; X11 = C=CCN([C@@H](Cc1ccc(C(F)(F)F)cc1)C(=O)[*:2])[*:1]; NMeGly(cPent) = CN[C@H](C(=O)O)C1CCCC1; NMeD = CN[C@@H](CC(=O)O)C(=O)O; NMeL = CN[C@@H](CC(C)C)C(=O)O; Morpholide = C1CN(*)CCO1; NMeA = CN[C@@H](C)C(=O)O; Ac5c = NC1(C(=O)O)CCCC1; Aze = O=C(O)[C@@H]1CCN1; Sar = CNCC(=O)O

Assays:
[1] = biological target: GDP-bound NRAS wild-type protein (Homo sapiens, UniProt P01111); test: Binding to NRAS by surface plasmon resonance (SPR), Single Cycle Kinetics; conditions: SPR
[2] = biological target: GDP-bound HRAS wild-type protein (Homo sapiens, UniProt P01112); test: Binding to HRAS by surface plasmon resonance (SPR), Single Cycle Kinetics; conditions: SPR
[3] = GDP-bound NRAS wild-type vs GDP-bound KRAS wild-type
[4] = GDP-bound HRAS wild-type vs GDP-bound KRAS wild-type
[5] = KD ratio, GDP-bound NRAS wild-type vs GDP-bound KRAS wild-type
[6] = KD ratio, GDP-bound HRAS wild-type vs GDP-bound KRAS wild-type

Chain of GDP-bound NRAS wild-type protein (P01111 whole entry): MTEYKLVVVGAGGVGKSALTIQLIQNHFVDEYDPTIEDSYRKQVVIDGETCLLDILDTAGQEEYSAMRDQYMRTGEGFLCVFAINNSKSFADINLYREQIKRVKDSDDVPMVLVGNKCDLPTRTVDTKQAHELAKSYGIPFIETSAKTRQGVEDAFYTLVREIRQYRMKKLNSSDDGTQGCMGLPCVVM
Chain of GDP-bound HRAS wild-type protein (P01112 whole entry): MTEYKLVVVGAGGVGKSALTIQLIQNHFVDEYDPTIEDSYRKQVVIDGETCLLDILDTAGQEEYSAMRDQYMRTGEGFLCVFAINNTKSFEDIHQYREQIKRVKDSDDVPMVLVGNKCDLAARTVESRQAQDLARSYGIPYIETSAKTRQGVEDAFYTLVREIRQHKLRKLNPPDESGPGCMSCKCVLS

Row | SMILES | NRAS/KRAS (ratio of KD value with respect to NRAS to KD value with respect to KRAS) [1, 3] | HRAS/KRAS (ratio of KD value with respect to HRAS to KD value with respect to KRAS) [2, 4] | other results
1 | CCC(CC)[C@H]1C(=O)N(C)[C@H](C(=O)N(C)C)CC(=O)N(C)[C@@H](COC)C(=O)N[C@@H]([C@@H](C)CC)C(=O)N(C)CC(=O)N(C)[C@H]2C/C=C\CCN(C2=O)[C@@H](CC2CCCCC2)C(=O)N(C)CC(=O)N[C@@H](CCc2ccc(C(F)(F)F)c(OC)c2)C(=O)N2C[C@@H](C)C[C@H]2C(=O)NC2(CC(C)(C)C2)C(=O)N1C [PP2466] | A (a compound having 10 or more and less than 20 is denoted as A) | A (a compound having 10 or more and less than 20 is denoted as A) | –
2 | C=CCN1C(=O)[C@@H]2CCN2C(=O)[C@H](C)N(C)C(=O)[C@H]([C@@H](C)CC)NC(=O)[C@H](CC(C)C)N(C)C(=O)C[C@@H](C(=O)N2CCOCC2)N(C)C(=O)[C@H](C2CCCC2)N(C)C(=O)C2(CCCC2)NC(=O)[C@@H]2CCCN2C(=O)[C@H](CCc2ccc(C(F)(F)F)c(Cl)c2)NC(=O)CN(C)C(=O)[C@@H]1Cc1ccc(C(F)(F)F)cc1 [PP0114] ([NMeL]I[NMeA][Aze][X11][Sar][hPhe(3-Cl-4-CF3)]P[Ac5c][NMeGly(cPent)][NMeD]-Morpholide; lactam N-11) | – | – | NRAS/KRAS (ratio of KD for GDP-bound NRAS wild-type to KD for KRAS) ([1]; KD ratio NRAS/KRAS): C (A compound having a KD ratio of 0.1 or more and less than 3 is denoted as C); HRAS/KRAS (ratio of KD for GDP-bound HRAS wild-type to KD for KRAS) ([2]; KD ratio HRAS/KRAS): C (A compound having a KD ratio of 0.1 or more and less than 3 is denoted as C)
3 | CC[C@H](C)[C@@H]1NC(=O)[C@H](CC)N(C)C(=O)C[C@@H](C(=O)N(C)C)N(C)C(=O)[C@H](C2CCCC2)N(C)C(=O)C2(CCC2)N(C)C(=O)[C@@H]2CCCN2C(=O)[C@H](CCc2cc(F)c(C(F)(F)F)c(F)c2)NC(=O)CN(C)C(=O)[C@H](Cc2ccc(C(F)(F)F)cc2)N2CC/C=C\C[C@@H](C2=O)N(C)C(=O)CN(C)C1=O [PP1780] | – | – | NRAS/KRAS (ratio of KD value for NRAS to KD value for KRAS) [1, 5]: A (a compound having 10 or more and less than 20 is denoted as A); HRAS/KRAS (ratio of KD value for HRAS to KD value for KRAS) [2, 6]: A (a compound having 10 or more and less than 20 is denoted as A)
4 | CCO[C@@H]1C[C@H]2C(=O)NC3(CC(C)(C)C3)C(=O)N(C)[C@@H](C(CC)CC)C(=O)N(C)[C@H](C(=O)N(C)C)CC(=O)N(C)[C@@H](CC(C)C)C(=O)N[C@@H]([C@@H](C)CC)C(=O)N(C)CC(=O)N(C)[C@H]3C/C=C\CCN(C3=O)[C@@H](Cc3ccc(C(F)(F)F)cc3)C(=O)N(C)CC(=O)N[C@@H](CCc3ccc(C(F)(F)F)c(Cl)c3)C(=O)N2C1 [PP2132] | AA (a compound having 20 or more is denoted as AA) | A (a compound having 10 or more and less than 20 is denoted as A) | –
5 | CC[C@H](C)[C@@H]1NC(=O)[C@H](CC(C)C)N(C)C(=O)C[C@@H](C(=O)N2CCOCC2)N(CC)C(=O)[C@H](C2CCCC2)N(C)C(=O)C2(CCC2)NC(=O)[C@@H]2CC(F)(F)CN2C(=O)[C@H](CCc2cc(F)c(C(F)(F)F)c(F)c2)NC(=O)CN(C)C(=O)[C@H](Cc2ccc(C(F)(F)F)cc2)N2CCCCC[C@@H](C2=O)N(C)C(=O)CN(C)C1=O [PP0954] | – | – | NRAS/KRAS (ratio of KD value with respect to NRAS to KD value with respect to KRAS) [1, 5]: A (a compound having 10 or more and less than 20 is denoted as A); HRAS/KRAS (ratio of KD value with respect to HRAS to KD value with respect to KRAS) [2, 6]: A (a compound having 10 or more and less than 20 is denoted as A)
6 | CCCOC[C@H]1C(=O)N[C@@H]([C@@H](C)OCC)C(=O)N2CCC[C@H]2C(=O)N(C)[C@H]2C/C=C\CCN(C2=O)[C@@H](Cc2ccc(C)cc2)C(=O)N(C)CC(=O)N[C@@H](CCc2ccc(C(F)(F)F)c(OC)c2)C(=O)N2C[C@@H](C)C[C@H]2C(=O)NC2(CC(C)(C)C2)C(=O)N(C)[C@@H](C2CCCC2)C(=O)N(C)[C@H](C(=O)N(C)CC)CC(=O)N1C [PP2431] | A (a compound having 10 or more and less than 20 is denoted as A) | A (a compound having 10 or more and less than 20 is denoted as A) | –
